Test results as given in patent US7138122B2, “Therapeutic systems” (Enzacta R & D Limited, priority 1997, dated 2006).
“Also recorded” adds a separate entry of the source.

Assays:
wild-type V79 cells = test: Uptake of NQO2 co-substrates into V79 cells (fluorimetry); format: in vitro ADME, Chinese hamster; settings: for uptake / internalisation into cells: 1 mM co-substrate, 37° C.
Protocol: The uptake of various NQO2 co-substrates into V79 cells was determined by fluorimetry. V79 cells were seeded into T25 tissue culture flasks and allowed to grow to confluence (^−2×10^7 cells). The growth medium was removed and replaced with 10 mls of fresh medium containing 1 mM of co-substrate and incubated at 37° C. At various the medium was removed and the cell monolayer washed ×5 with 50 mL of ice cold PBS. The cells were removed by trypsinisation and pelleted by centrifugation. The cell pellet was resuspended in alkaline lysis buffer (KOH 0.5M; 36% W/v CsCl; in 50% aqueous ethanol) disrupted by agitation and the cell debris removed by centrifugation at 10,000 g. The concentration of co-substrate was determined by fluorimetry (excitation 360 nm, emission 450 nm, slits 5nm) by diluting 100μl of supernatant in 2.9ml of 100 mM sodium bicarbonate buffer pH 10. The fluorimeter was calibrated against the appropriate standard. All measurements were done in triplicate.

Rat DT-diaphorase = biological target: T1, Rat DT-diaphorase (Rattus norvegicus, UniProt P05982); test: Use of co-substrates by rat DT diaphorase for reduction of CB1954; format: biochemical
T1 sequence (P05982 2-274 limits assumed): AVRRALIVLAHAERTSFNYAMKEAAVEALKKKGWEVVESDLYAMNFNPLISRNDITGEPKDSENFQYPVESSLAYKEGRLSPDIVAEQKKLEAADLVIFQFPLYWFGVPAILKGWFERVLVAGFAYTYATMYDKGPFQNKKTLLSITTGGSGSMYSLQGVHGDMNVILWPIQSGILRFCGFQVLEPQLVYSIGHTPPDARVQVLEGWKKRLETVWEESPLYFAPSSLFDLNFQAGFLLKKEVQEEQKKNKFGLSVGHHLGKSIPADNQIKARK

E. coli nitroreductase = E. coli nitroreductase (Escherichia coli, UniProt P38489); test: Use of co-substrates by E. coli nitroreductase for reduction of CB1954; format: biochemical
Sequence of E. coli nitroreductase (P38489 whole entry): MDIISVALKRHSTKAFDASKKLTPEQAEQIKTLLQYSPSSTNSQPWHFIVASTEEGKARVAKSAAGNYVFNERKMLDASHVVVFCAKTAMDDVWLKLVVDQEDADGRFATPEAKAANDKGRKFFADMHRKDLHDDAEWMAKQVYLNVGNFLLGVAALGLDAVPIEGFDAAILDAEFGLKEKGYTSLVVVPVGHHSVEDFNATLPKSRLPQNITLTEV

[1] = Effect on the body weight of normal mice (in vivo toxicity); settings: intravenous (tail vein), 8 day period
Protocol: Mice (6 groups of 3) were injected intravenously (tail vein) with either compound 1 or 2 at the doses shown and the weight of the mice was monitored over an 8 day period. Control mice received vehicle (phosphate buffered saline) only.

[2] = test system: human T98G gliobastoma cells; test: Cytotoxicity of CB 1954 on T98G glioblastoma cells with NQO2 co-substrates; settings: 144 hr in presence of CB 1954
NQO2 [3] = biological target: T2, NQO2 (Homo sapiens, UniProt P16083); test: Co-substrate activity with NQO2 for reduction of CB 1954 (HPLC); format: biochemical; set-up: restriction site were added to the 5′ and 3′-ends of the full-length NQO2 cDNA; made in house; host or cells: E. coli (expression vector pKK233-2, plasmid pKK-hNQO2); settings: for Km: of NQO2 for the co-substrate, CB1954 as electron acceptor (100 μM); for kcat: of NQO2 with the co-substrate, CB1954 as electron acceptor; for ability to act as co-substrate for NQO2: reduction of CB 1954 by NQO2; for RELATIVE RATE OF REDUCTION: CB 1954 reduction by NQO2, co-substrate initial 500 μM, CB 1954 initial 100 μM
T2 sequence (P16083 1-231): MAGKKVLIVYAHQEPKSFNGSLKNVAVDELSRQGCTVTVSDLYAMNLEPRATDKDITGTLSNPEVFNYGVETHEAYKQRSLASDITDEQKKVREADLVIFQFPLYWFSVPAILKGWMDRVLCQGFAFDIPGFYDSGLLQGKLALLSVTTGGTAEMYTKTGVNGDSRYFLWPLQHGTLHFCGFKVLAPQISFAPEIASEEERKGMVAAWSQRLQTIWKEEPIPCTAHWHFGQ
Protocol: The effect of various co-substrates on CB 1954 was determined as above but NADH. NADPH or NMNH was substituted for the NRH and CB 1954 was used at a fixed concentration of 100 μM. The enzyme concentration was 5 μg/ml. The reduction of CB 1954 was monitored by measuring both the decrease in its corresponding peak area on the HPLC trace and the increase in the area of the peak corresponding to the reduction product 5-(aziridin-1-yl)-4-hydroxylamino-2-nitrobenzamide. The relative rates of reduction were determined at 10% reduction of CB1954 from a graph plotting CB 1954 reduction against time. The time axis was normalised to the equivalent of 10 μg/ml of NQO2.
The activity of various potential co-substrates was determined by HPLC analysis in the presence of CB1954 and NQO2. To determine the kinetic parameters NQO2 (1 μg/ml) was incubated with NRH (5000 μM) and CB1954 at different concentrations (0.1 to 2 mM) in sodium phosphate buffer (10MM, pH 7) at 37° C. At various times, aliquots (10 μl) were injected onto a Partisphere SCX (250×4.5 mm) HPLC column (Whatman Ltd) and eluted isocratically (1.5 ml/min) with 50 mM aqueous sodium phosphate containing 1% methanol. The eluate was continuously monitored for absorption at 320 nm. […] The reduction of CB1954 was monitored by quantifying the increase in the area of the peak corresponding to the reduction product 5-(aziridin-1-yl)-4-hydroxylamino-2-nitrobenzamide. All the assays were initiated by addition of the enzyme and performed in duplicate. The kinetic parameters were calculated by plotting the initial rate of reduction at each concentration of CB1954 against that concentration and fitting the data to the Michaelis-Menton equation using a computer programme (Fig P). Values were confirmed by transforming the data and fitting it to various linear forms of the equation by regression analysis.
The effect of various co-substrates on CB1954 reduction was determined as above but the co-substrate was substituted for the NRH and C1954 was used at a fixed concentration of 100 μM. The enzyme concentration was 1 or 5 μg/ml. The reduction of CB1954 was monitored by measuring both the decrease in its corresponding peak area on the HPLC trace and the increase in the area of the peak corresponding to the reduction product 5-(aziridin-1-yl)-4-hydroxylamino-2-nitrobenzamide. The relative rates of reduction were determined at 10% reduction of CB1954 from a graph plotting CB1954 reduction against time. The time axis was normalised to the equivalent of 10 μg/ml of NQO2. The kinetic parameters of NQO2 for the various co-substrates was determined as for CB1954 except that the initial concentration of CB1954 was constant at 100 μm whilst that of the co-substrate was varied from 0 to 2 mM. The enzyme concentration was 0.5 μg/ml.

NQO2 [4] = biological target: T2, NQO2; test: Inhibition of NQO2 by flavones; format: biochemical; settings: competitive with respect to NRH; read-out: K1 (competitive inhibitor with respect to NRH)
[5] = substrate: NC(=O)c1cc(N2CC2)c([N+](=O)[O-])cc1[N+](=O)[O-]; test: Kinetic parameters of NQO2 with respect to CB 1954 (HPLC); format: biochemical, human; settings: other: with respect to CB 1954; NRH as co-substrate; pH 7.0; 37.0 °C
Protocol: Recombinant human NQO2 was prepared in E. coli. A NcoI and a HindIII restriction site were added to the 5′ and 3′-ends of the full-length NQO2 cDNA, respectively, using a PCR method with primers and nucleotide sequences derived from the 5′ and 3′-ends of the cDNA. The PCR product was resolved over a 1% agarose gel and then extracted using the QiAquick Gel Extraction Kit (Qiagen Inc). The gel-purified PCR product was cloned into PCRII vector from the TA cloning kit (Invitrogen Co) and the correct sequence of the PCR product was checked by dideoxy sequencing. The resulting construct was religated into the E. coli expression vector, pKK233-2 (Pharmacia) through the engineered NcoI and HindIII restriction sites. The expression plasmid was designated pKK-hNQO2. […] The purified NQO2 preparation was analysed by SDS-PAGE electrophoresis. The activity of NQO2 in the presence of CB 1954, and various cofactors was determined by HPLC. […] The eluate was continuously monitored for absorption at 320 nm. […] The reduction of CB 1954 was monitored by quantifying the increase in the area of the peak corresponding to the reduction product 5-(aziridin-1-yl)-4-hydroxylamino-2-nitrobenzamide. […] The kinetic parameters were calculated by plotting the initial rate of reduction at each concentration of CB 1954 against that concentration and fitting the data to the Michales-Menton equation using a computer programme (FigP). […]

Question: Which results are given for `NC(=O)C1=CN(CCCS(=O)(=O)O)C=CC1` [Compound 1, 1-(3-sulfonatopropyl)-dihydronicotinamide]?
Answer: uptake / internalisation into cells (wild-type V79 cells): excluded from the cells; also recorded: do not expect it to enter cells and this is what is observed; uptake / internalisation into cells (wild-type V79 cells; listed as compound 1): excluded from cells; also recorded: not able to enter the cells; ability of rat DT diaphorase to use as co-substrate (Rat DT-diaphorase): able to use; ability of E. coli nitroreductase to use as co-substrate (E. coli nitroreductase): not able to use either; intrinsic toxicity as judged by body weight loss [1]: no evidence of intrinsic toxicity; increase of the cytotoxicity of CB 1954 by added co-substrate [2]: did not potentiate; also recorded: no potentialtion is observed; Km (NQO2 [3]): 1080 ± 135 µM; kcat (NQO2 [3]): 25.5 s⁻¹

Question: With `NC(=O)CN1C=CCC(C(N)=O)=C1` [Compound 2, 1-(carboxamidomethyl)-dihydronicotinamide] as the molecule, how does the “internalisation relative to NRH” value (wild-type V79 cells) read?
Answer: Its value is “about 10 % of NRH”.

Question: And the “uptake / internalisation into cells” value (wild-type V79 cells)?
Answer: The value was “poorly internalised”.

Question: What about the “ability of rat DT diaphorase to use as co-substrate” value (Rat DT-diaphorase) of the same molecule?
Answer: The value was “able to use”.

Question: What about the “ability of E. coli nitroreductase to use as co-substrate” value (E. coli nitroreductase) of the same molecule?
Answer: The value was “not able to use either”.

Question: And the “intrinsic toxicity as judged by body weight loss” value [1]?
Answer: The value was “no evidence of intrinsic toxicity”.

Question: And the Km (NQO2 [3])?
Answer: The Km was 198 ± 19 µM.

Question: And the kcat (NQO2 [3])?
Answer: Its kcat is 12.5 s⁻¹.

Question: Which results are given for `NC(=O)C1=CN(Cc2ccccc2)C=CC1` [Compound 8, 1-benzyl-dihydronicotinamide]?
Answer: ability to act as co-substrate for NQO2 (NQO2 [3]): not cosubstrates; ability to act as co-substrate for NQO2 (NQO2 [3]; listed as compound 8): not co-substrates

Question: With `NC(=O)C1=CN(CCc2ccccc2)C=CC1` [Compound 11] as the molecule, how does the “ability to act as co-substrate for NQO2” value (NQO2 [3]) read?
Answer: The value was “not cosubstrates; also recorded: poor co-substrate”.

Question: What does the source list for `NC(=O)C1=CN([C@@H]2O[C@H](COP(=O)(O)OP(=O)(O)OC[C@H]3O[C@@H](n4cnc5c(N)ncnc54)[C@H](O)[C@@H]3O)[C@@H](O)[C@H]2O)C=CC1` [NADH]?
Answer: ability of rat DT diaphorase to use as co-substrate (Rat DT-diaphorase): can use NADH as a co-substrate; ability of E. coli nitroreductase to use as co-substrate (E. coli nitroreductase): can use NADH as a co-substrate; RELATIVE RATE OF REDUCTION (NQO2 [3]): 1.0; ability to act as co-substrate for NQO2 (NQO2 [3]): not readily catalysed; also recorded: not cosubstrates; also recorded: poor co-substrates

Question: Which results are given for `NC(=O)C1=CN([C@@H]2O[C@H](COP(=O)(O)OP(=O)(O)OC[C@H]3O[C@@H](n4cnc5c(N)ncnc54)[C@H](OP(=O)(O)O)[C@@H]3O)[C@@H](O)[C@H]2O)C=CC1` [NADPH]?
Answer: RELATIVE RATE OF REDUCTION (NQO2 [3]): 1.24; ability to act as co-substrate for NQO2 (NQO2 [3]): not readily catalysed; also recorded: not cosubstrates; also recorded: poor co-substrates

Question: For `NC(=O)C1=CN([C@@H]2O[C@H](COP(=O)(O)O)[C@@H](O)[C@H]2O)C=CC1` [NMNH], which “RELATIVE RATE OF REDUCTION” value (NQO2 [3]) is on record?
Answer: The value was 5.6.

Question: For `O=c1c(O)c(-c2ccc(O)c(O)c2)oc2cc(O)cc(O)c12` [Quercetin, 3,5,7,3′,4′-pentahydroxyflavone], which Ki (NQO2 [4]) is on record?
Answer: Its Ki is 27 nM.

Question: Which “ability to act as co-substrate for NQO2” value (NQO2 [3]) does the source give for `O=C(O)C1=CN(C2O[C@H](COP(=O)(O)O)[C@@H](O)[C@H]2O)C=CC1` (some centres unmarked) [nicotinic acid mononucleotide (reduced)] here?
Answer: The value was “not co-substrates”.

B1: Recombinant human NQO2 (Homo sapiens) (protein)
chain: T2 sequence (P16083 1-231)
notes: restriction site were added to the 5′ and 3′-ends of the full-length NQO2 cDNA; made in house; host or cells: E. coli (expression vector pKK233-2, plasmid pKK-hNQO2)
Question: For B1, which Km [5] is on record?
Answer: Its Km is 263 ± 13 µM.

Question: What about the kcat [5] of the same molecule?
Answer: Its kcat is 6.01 s⁻¹.
